{
  "source": "the supplement of paper PMC11208160",
  "data": [
    {"assay": "recombinant barcode read abundance after kanamycin selection (control-corrected) (log10(CPM+1)); higher = more efficient recombination; sequences stand for … in AGTGCAGAGAAAATCGGCCAGTTTTCTCTGCCTGCAGTCCGCATGCCGT…AGATTTATGCAGCGGACTGCCTTTCTCCCAAAGTGATAAACCGGACAGTATCATGGACCGGTTTTCCCGGTAATCCGTATTTGCAAGGTTGGTTTCACT; site = the 11-nt target", "outline": "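A vector carrying a T7-inducible recombinase and the last 73 bp of the bridge RNA received, by Gibson cloning, oligos encoding a promoter, target, barcode and the first 104 bridge RNA bases under J23119. The pooled constructs entered E. coli together with a donor plasmid by electroporation. Selection used chloramphenicol/ampicillin/kanamycin with 0.1 mM IPTG, with chloramphenicol/ampicillin LB agar as the control, each in two replicates. Recombination efficiency is the averaged, control-corrected counts-per-million of barcodes at recombinant junctions, reported as log10(CPM+1).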", "values": [
      {"sequence": "ATATCAACTTGGGTTCTAACCTGTTGCCG (site ATATCAACTCG)", "recombinant barcode read abundance (log10)": 0.625},
      {"sequence": "ATATCAACTTGGGTTCTAACCTGTTGCCG (site TCTGTGTCTTA)", "recombinant barcode read abundance (log10)": 0.0298},
      {"sequence": "ATATCTTCTTGGGTTCTAACCTGTTGCCT (site ATATCTTCTAG)", "recombinant barcode read abundance (log10)": 1.03},
      {"sequence": "ATATCTTCTTGGGTTCTAACCTGTTGCCT (site ATTTCTTCTAG)", "recombinant barcode read abundance (log10)": 0.578},
      {"sequence": "ATATGATCTTGGGTTCTAACCTGTTGCCT (site ATATGATCTAG)", "recombinant barcode read abundance (log10)": 1.43},
      {"sequence": "ATATGATCTTGGGTTCTAACCTGTTGCCT (site ATATTATCTTG)", "recombinant barcode read abundance (log10)": 0.145},
      {"sequence": "ATATGTACTTGGGTTCTAACCTGTTGCCA (site ATATGTACTCG)", "recombinant barcode read abundance (log10)": 0.22},
      {"sequence": "ATATGTACTTGGGTTCTAACCTGTTGCCA (site ATATGTACTTG)", "recombinant barcode read abundance (log10)": 0.733},
      {"sequence": "ATATGTCCTTGGGTTCTAACCTGTTGCAA (site ATATGTCCTTT)", "recombinant barcode read abundance (log10)": 0.715},
      {"sequence": "ATATGTCCTTGGGTTCTAACCTGTTGCAA (site GGTGCATCTAA)", "recombinant barcode read abundance (log10)": 0.0198},
      {"sequence": "ATCAAAGCTTGGGTTCTAACCTGTTGCCT (site ATCAAAGCTAG)", "recombinant barcode read abundance (log10)": 0.154},
      {"sequence": "ATCAAAGCTTGGGTTCTAACCTGTTGCCT (site ATCACAGCTAG)", "recombinant barcode read abundance (log10)": 0.156},
      {"sequence": "ATCAAGCCTTGGGTTCTAACCTGTTGCAG (site ATCAAGCCTCT)", "recombinant barcode read abundance (log10)": 1.83},
      {"sequence": "ATCAAGCCTTGGGTTCTAACCTGTTGCAG (site TATCCCTCTAG)", "recombinant barcode read abundance (log10)": 0.0814},
      {"sequence": "ATCAAGCCTTGGGTTCTAACCTGTTGCTT (site ATCAAGCCTAA)", "recombinant barcode read abundance (log10)": 0.102},
      {"sequence": "ATCAAGCCTTGGGTTCTAACCTGTTGCTT (site ATGAAGCCTAA)", "recombinant barcode read abundance (log10)": 0.122},
      {"sequence": "ATCATAGCTTGGGTTCTAACCTGTTGCGC (site ATCATAGCTGC)", "recombinant barcode read abundance (log10)": 0.504},
      {"sequence": "ATCATAGCTTGGGTTCTAACCTGTTGCGC (site CCATACCCTTA)", "recombinant barcode read abundance (log10)": 0.0517},
      {"sequence": "ATCATTCCTTGGGTTCTAACCTGTTGCCT (site AACATACCTAG)", "recombinant barcode read abundance (log10)": 0.237},
      {"sequence": "ATCATTCCTTGGGTTCTAACCTGTTGCCT (site ATCATTCCTAG)", "recombinant barcode read abundance (log10)": 0.542},
      {"sequence": "ATCCTTACTTGGGTTCTAACCTGTTGCCT (site AACCTTACTAG)", "recombinant barcode read abundance (log10)": 0.247},
      {"sequence": "ATCCTTACTTGGGTTCTAACCTGTTGCCT (site ACCCTTACTAG)", "recombinant barcode read abundance (log10)": 0.136},
      {"sequence": "ATCCTTACTTGGGTTCTAACCTGTTGCCT (site AGCCTTACTAG)", "recombinant barcode read abundance (log10)": 0.156},
      {"sequence": "ATCCTTACTTGGGTTCTAACCTGTTGCCT (site ATCCTTACTAG)", "recombinant barcode read abundance (log10)": 1.16},
      {"sequence": "ATCGCTTCTTGGGTTCTAACCTGTTGCCT (site AACGCTTCTAG)", "recombinant barcode read abundance (log10)": 0.246},
      {"sequence": "ATCGCTTCTTGGGTTCTAACCTGTTGCCT (site ACCGCTTCTAG)", "recombinant barcode read abundance (log10)": 0.272},
      {"sequence": "ATCGCTTCTTGGGTTCTAACCTGTTGCCT (site AGCGCTTCTAG)", "recombinant barcode read abundance (log10)": 0.432},
      {"sequence": "ATCGCTTCTTGGGTTCTAACCTGTTGCCT (site ATCGCTTCTAG)", "recombinant barcode read abundance (log10)": 0.0338},
      {"sequence": "ATCGGACCTTGGGTTCTAACCTGTTGCCT (site ATCGGAACTAG)", "recombinant barcode read abundance (log10)": 0.0754},
      {"sequence": "ATCGGACCTTGGGTTCTAACCTGTTGCCT (site ATCGGACCTAG)", "recombinant barcode read abundance (log10)": 1.23},
      {"sequence": "ATCGGACCTTGGGTTCTAACCTGTTGCCT (site ATCGGAGCTAG)", "recombinant barcode read abundance (log10)": 0.206},
      {"sequence": "ATCGGACCTTGGGTTCTAACCTGTTGCCT (site ATCGGATCTAG)", "recombinant barcode read abundance (log10)": 0.107},
      {"sequence": "ATCGGAGCTTGGGTTCTAACCTGTTGCCT (site ATCGGAACTAG)", "recombinant barcode read abundance (log10)": 0.196},
      {"sequence": "ATCGGAGCTTGGGTTCTAACCTGTTGCCT (site ATCGGACCTAG)", "recombinant barcode read abundance (log10)": 0.0265},
      {"sequence": "ATCGGAGCTTGGGTTCTAACCTGTTGCCT (site ATCGGAGCTAG)", "recombinant barcode read abundance (log10)": 0.775},
      {"sequence": "ATCGGAGCTTGGGTTCTAACCTGTTGCCT (site ATCGGATCTAG)", "recombinant barcode read abundance (log10)": 0.181},
      {"sequence": "ATCGTACCTTGGGTTCTAACCTGTTGCTG (site ATCCTACCTAA)", "recombinant barcode read abundance (log10)": 0.167},
      {"sequence": "ATCGTACCTTGGGTTCTAACCTGTTGCTG (site ATCGTACCTCA)", "recombinant barcode read abundance (log10)": 0.123},
      {"sequence": "ATCTGTTCTTGGGTTCTAACCTGTTGCCT (site ACCTGTGCTAG)", "recombinant barcode read abundance (log10)": 0.108},
      {"sequence": "ATCTGTTCTTGGGTTCTAACCTGTTGCCT (site ATCTGTTCTAG)", "recombinant barcode read abundance (log10)": 0.327},
      {"sequence": "ATCTTAGCTTGGGTTCTAACCTGTTGCCT (site ATCTTAACTAG)", "recombinant barcode read abundance (log10)": 0.0917},
      {"sequence": "ATCTTAGCTTGGGTTCTAACCTGTTGCCT (site ATCTTACCTAG)", "recombinant barcode read abundance (log10)": 0.141},
      {"sequence": "ATCTTAGCTTGGGTTCTAACCTGTTGCCT (site ATCTTAGCTAG)", "recombinant barcode read abundance (log10)": 0.266}
    ]}
  ]
}
